What was measured:
Experiment in all cases: SRB assay, IMT combined with inhibitor
Format in all cases: cell-based
JAR = JAR (placenta); concentration series of the labelled inhibitor + fixed concentration of IMT (3S)-1-[(2R)-2-[4-(2-chloro-4-fluoro-phenyl)-2-oxo-chromen-7-yl]oxypropanoyl]piperidine-3-carboxylic acid (Table 3: 40 nM, 120 h); negative=synergistic, positive=antagonistic
How it was run: (§1)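 Cells are grown at near-physiological glucose (5 mM) and given a dilution series of a MAPK signalling pathway SOC plus 40 nM (3S)-1-[(2R)-2-[4-(2-chloro-4-fluoro-phenyl)-2-oxo-chromen-7-yl]oxypropanoyl]piperidine-3-carboxylic acid held constant. After 120 h, biomass is quantified with sulforhodamine B.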

HCT116 = HCT116 (colon); concentration series of the labelled inhibitor + fixed concentration of IMT (3S)-1-[(2R)-2-[4-(2-chloro-4-fluoro-phenyl)-2-oxo-chromen-7-yl]oxypropanoyl]piperidine-3-carboxylic acid (Table 3: 40 nM, 120 h); negative=synergistic, positive=antagonistic
How it was run: as §1

SW620 = SW620 (colon); concentration series of the labelled inhibitor + fixed concentration of IMT (3S)-1-[(2R)-2-[4-(2-chloro-4-fluoro-phenyl)-2-oxo-chromen-7-yl]oxypropanoyl]piperidine-3-carboxylic acid (Table 3: 40 nM, 120 h); negative=synergistic, positive=antagonistic
How it was run: as §1

HCT15 = HCT15 (colon); concentration series of the labelled inhibitor + fixed concentration of IMT (3S)-1-[(2R)-2-[4-(2-chloro-4-fluoro-phenyl)-2-oxo-chromen-7-yl]oxypropanoyl]piperidine-3-carboxylic acid (Table 3: 40 nM, 120 h); negative=synergistic, positive=antagonistic
How it was run: as §1

SKMEL5 = SKMEL5 (skin); concentration series of the labelled inhibitor + fixed concentration of IMT (3S)-1-[(2R)-2-[4-(2-chloro-4-fluoro-phenyl)-2-oxo-chromen-7-yl]oxypropanoyl]piperidine-3-carboxylic acid (Table 3: 40 nM, 120 h); negative=synergistic, positive=antagonistic
How it was run: as §1

LOVO = LOVO (colon); concentration series of the labelled inhibitor + fixed concentration of IMT (3S)-1-[(2R)-2-[4-(2-chloro-4-fluoro-phenyl)-2-oxo-chromen-7-yl]oxypropanoyl]piperidine-3-carboxylic acid (Table 3: 40 nM, 120 h); negative=synergistic, positive=antagonistic
How it was run: as §1

HELA = HELA (cervix); concentration series of the labelled inhibitor + fixed concentration of IMT (3S)-1-[(2R)-2-[4-(2-chloro-4-fluoro-phenyl)-2-oxo-chromen-7-yl]oxypropanoyl]piperidine-3-carboxylic acid (Table 3: 40 nM, 120 h); negative=synergistic, positive=antagonistic
How it was run: as §1

GRANTA-519 = GRANTA-519 (hematological); concentration series of the labelled inhibitor + fixed concentration of IMT (3S)-1-[(2R)-2-[4-(2-chloro-4-fluoro-phenyl)-2-oxo-chromen-7-yl]oxypropanoyl]piperidine-3-carboxylic acid (Table 3: 40 nM, 120 h); negative=synergistic, positive=antagonistic
How it was run: as §1

A673 = A673 (muscle); concentration series of the labelled inhibitor + fixed concentration of IMT (3S)-1-[(2R)-2-[4-(2-chloro-4-fluoro-phenyl)-2-oxo-chromen-7-yl]oxypropanoyl]piperidine-3-carboxylic acid (Table 3: 40 nM, 120 h); negative=synergistic, positive=antagonistic
How it was run: as §1

HT29 = HT29 (colon); concentration series of the labelled inhibitor + fixed concentration of IMT (3S)-1-[(2R)-2-[4-(2-chloro-4-fluoro-phenyl)-2-oxo-chromen-7-yl]oxypropanoyl]piperidine-3-carboxylic acid (Table 3: 40 nM, 120 h); negative=synergistic, positive=antagonistic
How it was run: as §1

SKOV3 = SKOV3 (ovary); concentration series of the labelled inhibitor + fixed concentration of IMT (3S)-1-[(2R)-2-[4-(2-chloro-4-fluoro-phenyl)-2-oxo-chromen-7-yl]oxypropanoyl]piperidine-3-carboxylic acid (Table 3: 40 nM, 120 h); negative=synergistic, positive=antagonistic
How it was run: as §1

BXPC3 = BXPC3 (pancreas); concentration series of the labelled inhibitor + fixed concentration of IMT (3S)-1-[(2R)-2-[4-(2-chloro-4-fluoro-phenyl)-2-oxo-chromen-7-yl]oxypropanoyl]piperidine-3-carboxylic acid (Table 3: 40 nM, 120 h); negative=synergistic, positive=antagonistic
How it was run: as §1

HT1080 = HT1080 (connective tissue); concentration series of the labelled inhibitor + fixed concentration of IMT (3S)-1-[(2R)-2-[4-(2-chloro-4-fluoro-phenyl)-2-oxo-chromen-7-yl]oxypropanoyl]piperidine-3-carboxylic acid (Table 3: 40 nM, 120 h); negative=synergistic, positive=antagonistic
How it was run: as §1

NCIH460 = NCIH460 (lung); concentration series of the labelled inhibitor + fixed concentration of IMT (3S)-1-[(2R)-2-[4-(2-chloro-4-fluoro-phenyl)-2-oxo-chromen-7-yl]oxypropanoyl]piperidine-3-carboxylic acid (Table 3: 40 nM, 120 h); negative=synergistic, positive=antagonistic
How it was run: as §1

SKMEL28 = SKMEL28 (skin); concentration series of the labelled inhibitor + fixed concentration of IMT (3S)-1-[(2R)-2-[4-(2-chloro-4-fluoro-phenyl)-2-oxo-chromen-7-yl]oxypropanoyl]piperidine-3-carboxylic acid (Table 3: 40 nM, 120 h); negative=synergistic, positive=antagonistic
How it was run: as §1

Compound: Cc1cc(C(=O)NOCCO)c(Nc2ccc(I)cc2F)n(C)c1=O [AZD8330, 2-((2-Fluoro-4-iodophenyl)amino)-N-(2-hydroxyethoxy)-1,5-dimethyl-6-oxo-1,6-dihydropyridine-3-carboxamide]
- difference between the calculated combinatorial index (BLISS) and the observed combinatorial effect (JAR): 0.0124
- difference between the calculated combinatorial index (BLISS) and the observed combinatorial effect (HCT116): −0.0196
- difference between the calculated combinatorial index (BLISS) and the observed combinatorial effect (SW620): −0.0037
- difference between the calculated combinatorial index (BLISS) and the observed combinatorial effect (HCT15): 0.1028
- difference between the calculated combinatorial index (BLISS) and the observed combinatorial effect (SKMEL5): 0.0135
- difference between the calculated combinatorial index (BLISS) and the observed combinatorial effect (LOVO): 0.0047
- difference between the calculated combinatorial index (BLISS) and the observed combinatorial effect (HELA): 0.0000
- difference between the calculated combinatorial index (BLISS) and the observed combinatorial effect (GRANTA-519): −0.0506
- difference between the calculated combinatorial index (BLISS) and the observed combinatorial effect (A673): −0.0047
- difference between the calculated combinatorial index (BLISS) and the observed combinatorial effect (HT29): 0.0488
- difference between the calculated combinatorial index (BLISS) and the observed combinatorial effect (SKOV3): −0.0609
- difference between the calculated combinatorial index (BLISS) and the observed combinatorial effect (BXPC3): 0.0756
- difference between the calculated combinatorial index (BLISS) and the observed combinatorial effect (HT1080): 0.0197
- difference between the calculated combinatorial index (BLISS) and the observed combinatorial effect (NCIH460): 0.0015
- difference between the calculated combinatorial index (BLISS) and the observed combinatorial effect (SKMEL28): 0.0300

Compound: CC(C)(C)c1nc(-c2cccc(NS(=O)(=O)c3c(F)cccc3F)c2F)c(-c2ccnc(N)n2)s1 [Dabrafenib]
- difference between the calculated combinatorial index (BLISS) and the observed combinatorial effect (JAR): 0.0431
- difference between the calculated combinatorial index (BLISS) and the observed combinatorial effect (HCT116): 0.0411
- difference between the calculated combinatorial index (BLISS) and the observed combinatorial effect (SW620): −0.0699
- difference between the calculated combinatorial index (BLISS) and the observed combinatorial effect (HCT15): 0.0551
- difference between the calculated combinatorial index (BLISS) and the observed combinatorial effect (SKMEL5): −0.0987
- difference between the calculated combinatorial index (BLISS) and the observed combinatorial effect (LOVO): −0.0384
- difference between the calculated combinatorial index (BLISS) and the observed combinatorial effect (HELA): −0.0022
- difference between the calculated combinatorial index (BLISS) and the observed combinatorial effect (GRANTA-519): −0.0357
- difference between the calculated combinatorial index (BLISS) and the observed combinatorial effect (A673): −0.0146
- difference between the calculated combinatorial index (BLISS) and the observed combinatorial effect (HT29): 0.0360
- difference between the calculated combinatorial index (BLISS) and the observed combinatorial effect (SKOV3): 0.0282
- difference between the calculated combinatorial index (BLISS) and the observed combinatorial effect (BXPC3): 0.0251
- difference between the calculated combinatorial index (BLISS) and the observed combinatorial effect (HT1080): −0.1475
- difference between the calculated combinatorial index (BLISS) and the observed combinatorial effect (NCIH460): −0.0275
- difference between the calculated combinatorial index (BLISS) and the observed combinatorial effect (SKMEL28): 0.0194

Compound: O=C(c1cc(Cc2n[nH]c(=O)c3ccccc23)ccc1F)N1CCN(C(=O)C2CC2)CC1 [Olaparib]
- difference between the calculated combinatorial index (BLISS) and the observed combinatorial effect (JAR): 0.0294
- difference between the calculated combinatorial index (BLISS) and the observed combinatorial effect (HCT116): −0.0690
- difference between the calculated combinatorial index (BLISS) and the observed combinatorial effect (SW620): 0.0198
- difference between the calculated combinatorial index (BLISS) and the observed combinatorial effect (HCT15): −0.0472
- difference between the calculated combinatorial index (BLISS) and the observed combinatorial effect (LOVO): −0.0819
- difference between the calculated combinatorial index (BLISS) and the observed combinatorial effect (HELA): −0.0307
- difference between the calculated combinatorial index (BLISS) and the observed combinatorial effect (GRANTA-519): −0.0088
- difference between the calculated combinatorial index (BLISS) and the observed combinatorial effect (A673): 0.0334
- difference between the calculated combinatorial index (BLISS) and the observed combinatorial effect (HT29): 0.0068
- difference between the calculated combinatorial index (BLISS) and the observed combinatorial effect (SKOV3): 0.0092
- difference between the calculated combinatorial index (BLISS) and the observed combinatorial effect (BXPC3): 0.0315
- difference between the calculated combinatorial index (BLISS) and the observed combinatorial effect (NCIH460): −0.0377
- difference between the calculated combinatorial index (BLISS) and the observed combinatorial effect (SKMEL28): −0.0624

From US20240252454A1, “COMPOSITION COMPRISING AN INHIBITOR OF MITOCHONDRIAL TRANSCRIPTION” (LEAD DISCOVERY CENTER GMBH, priority 2021, published 2024)
